Results from patent US9527842B2, “Inhibitors of human immunodeficiency virus replication” (priority 2013, dated 2016).
Like-named read-outs stand apart in the source and are kept apart here.

What was measured:
[1] = rcm bond, Hoveyda-Grubbs II, DCE
[2] = rcm bond, Hoveyda-Grubbs II, then NaOH, DCE

COC(=O)[C@@H](OC(C)(C)C)c1c(C)cn2nc3cc2c1N1CCC(C)(CC1)OCC=CC(C)COc1ccc(C)cc1-c1cccc-3c1 (stereo partly shown)
ring closure, isolated yield ([1]; from C=CCOC1(C)CCN(c2c([C@H](OC(C)(C)C)C(=O)OC)c(C)cn3nc(-c4cccc(-c5cc(C)ccc5OCC(C)C=C)c4)cc23)CC1, 20-membered ring, 2.13 mM, 85.0 °C, 2.0 h): 82%

COC(=O)[C@@H](OC(C)(C)C)c1c(C)cn2nc3cc2c1N1CCC(C)(CC1)OCC=CC[C@H](C)Oc1ccc(F)cc1-c1cccc-3c1
ring closure, yield after HPLC ([2]; from C=CCOC1(C)CCN(c2c([C@H](OC(C)(C)C)C(=O)OC)c(C)cn3nc(-c4cccc(-c5cc(F)ccc5O[C@@H](C)CC=C)c4)cc23)CC1, 20-membered ring, then H2, Pd/C, 2.02 mM, 85.0 °C, 2.0 h, 3 steps): 23.2%

COC(=O)[C@@H](OC(C)(C)C)c1c(C)cn2nc3cc2c1N1CCC(C)(CC1)OCC=CCC[C@H](C)Oc1ccc(C)cc1-c1cccc-3c1
ring closure, yield after HPLC ([2]; from C=CCC[C@H](C)Oc1ccc(C)cc1-c1cccc(-c2cc3c(N4CCC(C)(OCC=C)CC4)c([C@H](OC(C)(C)C)C(=O)OC)c(C)cn3n2)c1, 21-membered ring, then H2, Pd/C, 1.86 mM, 85.0 °C, 3.0 h, 3 steps): 40.6%

COC(=O)[C@@H](OC(C)(C)C)c1c(C)cn2nc3cc2c1N1CCC(C)(CC1)OCC=CC[C@H](C)Oc1ccc(C)c(F)c1-c1cccc-3c1
ring closure, yield after HPLC ([2]; from C=CCOC1(C)CCN(c2c([C@H](OC(C)(C)C)C(=O)OC)c(C)cn3nc(-c4cccc(-c5c(O[C@@H](C)CC=C)ccc(C)c5F)c4)cc23)CC1, 20-membered ring, then H2, Pd/C, 2.0 mM, 80.0 °C, 4.0 h, 3 steps): 11%

COC(=O)[C@@H](OC(C)(C)C)c1c(C)cn2nc3cc2c1N1CCC(C)(CC1)OCC=CC[C@H](C)Oc1ccc(C#N)cc1-c1cccc-3c1
ring closure, isolated yield ([1]; from C=CCOC1(C)CCN(c2c([C@H](OC(C)(C)C)C(=O)OC)c(C)cn3nc(-c4cccc(-c5cc(C#N)ccc5O[C@@H](C)CC=C)c4)cc23)CC1, 20-membered ring, 1.51 mM, 85.0 °C, 2.0 h): 82%

COC(=O)[C@@H](OC(C)(C)C)c1c(C)cn2nc3cc2c1N1CCC(C)(CC1)OCC=CCOc1ccccc1CC(O)CNC3=O (stereo partly shown)
ring closure, isolated yield ([1]; from C=CCOc1ccccc1CC(O)CNC(=O)c1cc2c(N3CCC(C)(OCC=C)CC3)c([C@H](OC(C)(C)C)C(=O)OC)c(C)cn2n1, 21-membered ring, 1.81 mM, 70.0 °C, 3.0 h): 58%

COC(=O)[C@@H](OC(C)(C)C)c1c(C)cn2nc3cc2c1N1CCC(C)(CCC=CCOc2cc(F)ccc2CNC3=O)CC1
ring closure, yield after HPLC ([2]; from C=CCCC1(C)CCN(c2c([C@H](OC(C)(C)C)C(=O)OC)c(C)cn3nc(C(=O)NCc4ccc(F)cc4OCC=C)cc23)CC1, 19-membered ring, 1.57 mM, 70.0 °C, 2.0 h, 2 steps): 53.5%
